# Measurements reported in patent publication US20150203561A1, “BETA THYMOSIN FRAGMENTS” (REGENERX BIOPHARMACEUTICALS, INC., priority 2008, published 2015).
# Assays:
# human dermal fibroblasts [1] = assay: Collagen secretion, colorimetric assay; assay type: cell-based; parameters: key to Stimulates collagens / Inhibits collagens: P = active; U = useful; details: for Inhibits collagens / Stimulates collagens: summary of peptide uses
# Method: Effect of Tb4 and peptides on collagen secretion • Human dermal fibroblasts (Fb) were cultured to 80% confluence • Cells were treated with 1 μg/ml Tb4 or peptides for 24, 48, or 72 hours. Cells were treated once/day. • Culture supernatants (n=3, experiments repeated 5 times) were assayed for collagen secretion using a colorimetric assay that detects collagen types I, II, III, IV and V, and possibly VII
# human dermal fibroblasts [2] = assay: Elastin secretion, colorimetric assay; assay type: cell-based; parameters: key to Stimulates Elastin: P = active; U = useful; details: for Secretion of elastin: dermal Fb, 1 μg/ml once/day, 24, 48, or 72 hours; for Stimulates Elastin: summary of peptide uses
# Method: Effect of Tb4 and peptides on elastin secretion • Human dermal fibroblasts (Fb) were cultured to 80% confluence • Cells were treated with 1 μg/ml Tb4 or peptides for 24, 48, or 72 hours. Cells were treated once/day. • Culture supernatants (n=3, experiments repeated 6 times) were assayed for elastin secretion using a colorimetric assay • Data was analyzed using the t-test
# neurite outgrowth = assay: Promotion of neurite outgrowth (summary table); parameters: key: P = active; U = useful; details: summary of peptide uses
# neuron survival = assay: Promotion of neuron survival (summary table); parameters: key: P = active; U = useful; details: summary of peptide uses
# L1 = assay: Stimulation of L1 production (summary table); parameters: key: P = active; U = useful; details: summary of peptide uses
# [3] = system: tissue damage caused by UV radiation; assay: UV radiation tissue damage (summary table); parameters: key: P = active; U = useful; details: summary of peptide uses
# human dermal fibroblasts [4] = assay: LDH cytotoxicity assay in human dermal fibroblasts exposed to cytotoxic agents; assay type: cell-based; parameters: key to Protects from cytotoxicity: P = active; U = useful; details: for Protects from cytotoxicity: summary of peptide uses
# Method: Dose Response Analysis of Peptide 3A • Human dermal fibroblasts (Fb, Cascade Biologics, OR) were cultured to 80% confluence • 2 ml CHX (0.002%) in basal medium ±1 μg/ml Tb4 or 1.0, 0.1, 0.01, or 0.001 μg/ml peptide 3A was added to Fb for 1, 2, 3, or 4 hours • 100 μl culture medium (n=4) was added to 100 μl LDH reagent and incubated at room temperature for 20 minutes • OD500 nm was read and averages ±SEM were calculated • Data was analyzed with probability of p≦0.05
# human dermal Fb = assay: CHX-induced apoptosis (APOPercentage dye) in human dermal Fb; assay type: cell-based; parameters: key to Inhibits apoptosis: P = active; U = useful; details: summary of peptide uses
# Method: Effect of Tb4 and Peptide 3A on CHX-induced apoptosis • Human dermal Fb were cultured to 80% confluence • Fb were treated with 0.002% CHX+1 μg/ml Tb4 or peptide 3A, 4A or 6A for 1.5 hours • APOPercentage “dye” was added to the Fb cultures at a 1:50 dilution for an additional 30 minutes • Excess dye was washed from the cells, and digital images were captured. Cells dyed red were apoptotic • Adobe Photoshop was used to calculate the number of red pixels in six digitized images for each treatment • Statistical analysis was done using the t-test
# [5] = system: TNF-a-stimulated IL8 secretion; assay: Suppression of inflammation (summary table; IL-8 secretion); assay type: cell-based, human; parameters: key: P = active; U = useful; details: summary of peptide uses
# Method: Analysis of IL-8 Secretion • Human corneal epithelial cells or dermal Fb were cultured to 80% confluence • Cells were pre-treated with 1 μg/ml Tb4 or peptides for one hour • Cells were stimulated with 10 ng/ml TNF-a in the presence or absence of Tb4 or peptides • Culture medium was analyzed for secreted IL-8 by ELISA (n=3, experiments repeated twice) • Data was analyzed using the t-test
# cell migration = assay: Stimulation of migration (summary table); assay type: cell-based; parameters: key: P = active; U = useful; details: summary of peptide uses
# IKKb = target: T1, IKKb (Homo sapiens, UniProt O14920); assay: Cell-free IkBa phosphorylation ELISA (NFkB signaling pathway); assay type: biochemical; parameters: key to Inhibits IkBa phosphorylation: P = active; U = useful
# T1 sequence (O14920 1-756): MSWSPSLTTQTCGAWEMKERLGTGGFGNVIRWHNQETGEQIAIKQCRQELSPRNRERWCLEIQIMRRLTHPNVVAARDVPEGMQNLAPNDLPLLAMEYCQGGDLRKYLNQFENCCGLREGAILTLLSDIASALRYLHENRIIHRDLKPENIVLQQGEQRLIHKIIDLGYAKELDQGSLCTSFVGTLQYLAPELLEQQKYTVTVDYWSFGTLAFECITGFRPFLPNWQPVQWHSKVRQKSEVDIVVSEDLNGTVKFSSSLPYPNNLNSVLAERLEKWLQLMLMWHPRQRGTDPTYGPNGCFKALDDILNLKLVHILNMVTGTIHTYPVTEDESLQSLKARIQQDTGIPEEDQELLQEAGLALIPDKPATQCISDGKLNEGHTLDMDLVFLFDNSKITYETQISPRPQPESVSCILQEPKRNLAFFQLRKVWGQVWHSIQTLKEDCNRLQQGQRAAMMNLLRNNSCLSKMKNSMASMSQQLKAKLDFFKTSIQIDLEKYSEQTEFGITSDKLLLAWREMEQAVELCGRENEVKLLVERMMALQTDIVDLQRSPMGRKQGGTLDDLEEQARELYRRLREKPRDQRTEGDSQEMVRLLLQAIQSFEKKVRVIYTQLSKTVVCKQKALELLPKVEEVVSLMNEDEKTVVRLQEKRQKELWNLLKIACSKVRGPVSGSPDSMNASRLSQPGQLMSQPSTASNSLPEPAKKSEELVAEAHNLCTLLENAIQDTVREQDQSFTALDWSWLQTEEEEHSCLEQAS
# Method: Effect of Tb4 and peptides on the NFkB signaling pathway • Cell-free assay • Prepared 1.0, 0.1, and 0.01 ng/ml solutions of Tb4 or peptides in kinase buffer supplied with kit • Added 10 μl of the solutions to wells of a 96-well plate coated with lkBa • IKKb (20 mU) was added to wells • 90 μl kinase reaction buffer (containing ATP) was added to the wells • ELISA to detect phosphorylated lkBa
# [6] = system: Transformed human corneal epithelial cells (HCET); assay: Collagen type IV secretion ELISA; assay type: cell-based; parameters: key to Stimulates collagen IV: P = active; U = useful
# Method: Effect of Tb4 and peptides on collagen type IV secretion • Transformed human corneal epithelial cells (HCET) were cultured to 80% confluence • Cells were treated with 1 μg/ml Tb4 or peptides for 24 hours • Culture supernatant samples (n=3 per experiment, total of 4 experiments) were analyzed using a collagen type IV ELISA • Data was analyzed using the t-test
Substance,Inhibits collagens (human dermal fibroblasts [1]),Secretion of elastin (human dermal fibroblasts [2]),Stimulates Elastin (human dermal fibroblasts [2]),Promotes neurite outgrowth (neurite outgrowth),Promotes neuron survival (neuron survival),Stimulates L1 production (L1),Inhibits tissue damage caused by UV radiation [3],Protects tissue from UV radiation damage [3],Protects from cytotoxicity (human dermal fibroblasts [4]),Inhibits apoptosis (human dermal Fb),Stimulates collagens (human dermal fibroblasts [1]),Suppresses inflammation [5],Stimulates Migration (cell migration),"Inhibition of IkBa phosphorylation (NFkB signaling pathway) (IKKb; cell-free, 1.0, 0.1, and 0.01 ng/ml)",Inhibits IkBa phosphorylation (IKKb; summary of peptide uses),"Collagen type IV secretion ([6]; corneal epithelial cells, 1 μg/ml, 24 hours)",Stimulates collagen IV ([6]; summary of peptide uses),"Protection of Fb against the cytotoxic effects of CHX (LDH) (human dermal fibroblasts [4]; 1 μg/ml, 0.002% CHX, 2 hour exposure)","Stimulation of secretion of collagens (human dermal fibroblasts [1]; human dermal fibroblasts, 1 μg/ml once/day, after 3 days of treatment)"
Ac-Met-Ala-Glu-Ile-Glu-Lys-Phe-Asp-Lys-Ser-OH (Ac-MAEIEKFDKS-OH) [Peptide 7B],U,stimulate,U,U,U,U,U,U,,,,,,,,,,,
Ac-SDKPDMAEIEKFDKSKLKKTETQ-OH [Fragment Bb],U,,U,U,U,U,U,U,U,U,U,U,U,,,,,,
Ac-Leu-Lys-Lys-Thr-Glu-Thr-Gln-OH (Ac-LKKTETQ-OH) [Peptide 4B],,stimulate,P,U,U,U,U,U,,,,,P,,,,,,
H-Glu-Lys-Asn-Pro-Leu-Pro-Ser-Lys-Glu-Thr-OH (H-EKNPLPSKET-OH) [Peptide 5A],,,,U,U,U,U,U,,,,,P,,,,,,
Ac-Ile-Glu-Gln-Glu-Lys-Gln-Ala-Gly-Glu-Ser-OH (Ac-IEQEKQAGES-OH) [Peptide 6B],P,,,U,U,U,U,U,,,,,,may have an effect,P,,,,
Ac-SDKPDMAEIEKFDKSKLKKTET-OH [Fragment Ab],U,,U,U,U,U,U,U,U,U,U,U,U,,,,,,
H-Ser-Asp-Lys-Pro-OH (H-SDKP-OH) [Peptide 2A],P,,,U,U,U,U,U,,,,,,,,stimulate,P,,
H-Met-Ala-Glu-Ile-Glu-Lys-Phe-Asp-Lys-Ser-OH (H-MAEIEKFDKS-OH) [Peptide 7A],P,,,U,U,U,U,U,,,,,,,,,,,
H-Ile-Glu-Gln-Glu-Lys-Gln-Ala-Gly-Glu-Ser-OH (H-IEQEKQAGES-OH) [Peptide 6A],P,,,U,U,U,U,U,,,,,,,,,,,
Ac-SDKPDMAEIEKFDKS-OH [Peptide 3B],P,,,U,U,U,U,U,P,,,,,,,,,protect,
Ac-Leu-Lys-Lys-Thr-Glu-Thr-OH (Ac-LKKTET-OH) [Peptide 1B],P,,,U,U,U,U,U,,,,,,,,,,,
Ac-Glu-Lys-Asn-Pro-Leu-Pro-Ser-Lys-Glu-Thr-OH (Ac-EKNPLPSKET-OH) [Peptide 5B],,,,U,U,U,U,U,,,P,,,,,,,,stimulates
